Data from patent US20150313837A1, “POLYMERIC HYDROGEL COMPOSITIONS WHICH RELEASE ACTIVE AGENTS IN RESPONSE TO ELECTRICAL STIMULUS” (University of Witwatersrand, Johannesburg, priority 2010, published 2015).

Assay: Drug leakage from hydrogel in PBS in absence of electric current
Type: physicochemical
Conditions: comparison of drugs loaded in the hydrogel
Description: The indomethacin-loaded hydrogels were left in […] PBS for 12 hours, and a 1 mL sample was then taken in order to assess for any drug release prior to exposure to an electric current. […] Further tests for drug release of the indomethacin-loaded hydrogels in the presence of an electric current were performed.
The system was therefore left in 50 mL of PBS for 12 hours, and 1 mL sample was taken and assessed for any presence of drugs. […] The hydrogels were then then assessed for their drug release capacity. They were once again immersed in PBS and an electric current was passed through them. This time, 35 samples were extracted and assessed by UV/visible spectroscopy for the amount of drugs which were released.
The amount of drug released ranged from 0.081 mg to 0.160 mg. The hydrogel was then assessed one last time for any leakage of drugs. The hydrogel was immersed in 50 mL of PBS for 12 hours.
One possible explanation for this phenomenon is the larger molecular size of indomethacin as compared to diclofenac sodium and ibuprofen. This larger molecular size means that indomethacin is better entrapped inside the three dimensional network of the hydrogel system.

| Compound | leakage of loaded drug from hydrogel when no electric current is applied |
| --- | --- |
| O=C(O)Cc1ccccc1Nc1c(Cl)cccc1Cl [Diclofenac sodium] | drug leakage may still have occurred on the surface |
| COc1ccc2c(c1)c(CC(=O)O)c(C)n2C(=O)c1ccc(Cl)cc1 [indomethacin] | no leakage occurred |
| CC(C)Cc1ccc(C(C)C(=O)O)cc1 (stereo not drawn) [ibuprofen] | drug leakage may still have occurred on the surface |
